Literature values as cited in patent US6517854B2, “Antimicrobial sanitizing lotion with skin protection properties” (priority 1999, dated 2003).

Tests used:
gram-positive bacteria = conditions: organisms listed in the 1st table r1-r26
gram-negative bacteria = conditions: organisms listed in the 1st table r28-r63
fungi and yeasts = conditions: organisms listed in the 1st table r65-r73

Oc1cc(Cl)ccc1Oc1ccc(Cl)cc1Cl [TRICLOSAN, 2,4,4′-trichloro-2′-hydroxydiphenyl ether]
demonstrated efficacy: efficacy against gram-positive bacteria (gram-positive bacteria) | efficacy against gram-negative bacteria (gram-negative bacteria) | efficacy against fungi and yeasts (fungi and yeasts)
